Test results published in US7632838B2, “11-beta HSD1 inhibitors” (Wyeth, priority 2006, dated 2009).

What was measured:
human 11 b-HSD1 = molecular target: T1, human 11 b-HSD1 (Homo sapiens, UniProt P28845); assay: cell-based assay, stable CHO cell line expressing human 11 b-HSD1 (cortisone to cortisol, DiscoverX HitHunter Cortisol Assay); settings: 11βHSD1 inhibition; stated as 'less than about'; read-out: inhibition constant IC50
T1 construct: expressed in transfected cells
Method: Compounds described herein can be tested in a cell-based assay using a stable CHO cell line expressing human 11 b-HSD1. Cells are plated at 20,000 cells/well in 96 well plates and incubated overnight (12-16 hrs) at 37° C./5% CO2. Cells are treated with different concentration of compound in 90 microliter serum-free media and incubated for 30 minutes at 37° C./5% CO2. 10 ul of 5 micromolar cortisone (final concentration 500 nM) is then added to the cells and the plate is incubated at 37° C./5% CO2 for 120 minutes. 15 microliter of media is withdrawn and amount of cortisol in the media is measured using the DiscoverX HitHunter Cortisol Assay (DiscoverX corp, CA).

T1 sequence (P28845 whole entry): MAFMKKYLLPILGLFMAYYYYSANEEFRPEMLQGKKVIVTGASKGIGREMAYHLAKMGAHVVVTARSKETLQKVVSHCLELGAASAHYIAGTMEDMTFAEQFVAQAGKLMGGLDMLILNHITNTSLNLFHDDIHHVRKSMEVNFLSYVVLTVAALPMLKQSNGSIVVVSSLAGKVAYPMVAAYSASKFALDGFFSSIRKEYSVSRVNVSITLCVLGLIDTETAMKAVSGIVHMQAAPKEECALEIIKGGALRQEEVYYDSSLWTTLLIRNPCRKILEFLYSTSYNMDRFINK

Structure (SMILES) | IC50 (human 11 b-HSD1) | melting point
O=S(=O)(c1ccc(-c2ccccc2)cc1)N1CCN(c2ncccc2Cl)CC1 [Example 2H, 1-(biphenyl-4-ylsulfonyl)-4-(3-chloropyridin-2-yl)piperazine] | < 10 µM | –
O=S(=O)(c1ccc2ccccc2c1)N1CCN(c2ncccc2Cl)CC1 [Example 2B, 1-(3-chloropyridin-2-yl)-4-(2-naphthylsulfonyl)piperazine] | < 10 µM | –
COc1ccc(S(=O)(=O)N2CCN(c3ncccc3Cl)CC2)cc1 [Example 2G, 1-(3-chloropyridin-2-yl)-4-[(4-methoxyphenyl)sulfonyl]piperazine] | < 10 µM | –
O=S(=O)(c1ccc(C(F)(F)F)cc1Br)N1CCN(c2ncccc2Cl)CC1 [Example 2J, 1-{[2-bromo-4-(trifluoromethyl)phenyl]sulfonyl}-4-(3-chloropyridin-2-yl)piperazine] | < 10 µM | –
Cc1ccc(S(=O)(=O)N2CCN(c3ncccc3Cl)CC2)cc1 [Example 2F, 1-(3-chloropyridin-2-yl)-4-[(4-methylphenyl)sulfonyl]piperazine] | < 10 µM | –
O=S(=O)(c1ccccc1Cl)N1CCN(c2ncccc2Cl)CC1 [Example 2D, 1-[(2-chlorophenyl)sulfonyl]-4-(3-chloropyridin-2-yl)piperazine] | < 10 µM | –
O=S(=O)(Cc1ccccc1)N1CCN(c2ncccc2Cl)CC1 [Example 2I, 1-(benzylsulfonyl)-4-(3-chloropyridin-2-yl)piperazine] | < 10 µM | –
O=S(=O)(c1ccc(Cl)cc1)N1CCN(c2ncccc2Cl)CC1 [Example 2E, 1-[(4-chlorophenyl)sulfonyl]-4-(3-chloropyridin-2-yl)piperazine] | < 10 µM | –
CC(C)(C)c1ccc(S(=O)(=O)N2CCN(c3ncccc3Cl)CC2)cc1 [Example 2A, 1-[(4-tert-butylphenyl)sulfonyl]-4-(3-chloropyridin-2-yl)piperazine] | < 10 µM | –

Other lines, results leading:

IC50 (human 11 b-HSD1) | melting point | Structure (SMILES)
< 10 µM | – | C[C@H]1CN(C(=O)OCc2ccccc2)C[C@H](C)N1S(=O)(=O)c1ccc(C(C)(C)C)cc1 [Example 5, Benzyl (3S,5S)-4-[(4-tert-butylphenyl)sulfonyl]-3,5-dimethylpiperazine-1-carboxylate]
– | 191 to 199 °C | O=C(N1CCC(Oc2c(Cl)cccc2Cl)CC1)C12CC3CC(CC(C3)C1)C2 [Example 18D, Adamantan-1-yl-[4-(2,6-dichloro-phenoxy)-piperidin-1-yl]-methanone]
< 10 µM | – | O=S(=O)(c1ccc(Cl)c(Cl)c1)N1CCN(c2ncccc2F)CC1 [Example 13A, 1-[(3,4-dichlorophenyl)sulfonyl]-4-(3-fluoropyridin-2-yl)piperazine]
< 10 µM | – | O=S(=O)(c1ccc2ccccc2c1)N1CCN(c2ccc(F)cc2C(F)(F)F)CC1 [Example 9F, 1-[4-fluoro-2-(trifluoromethyl)phenyl]-4-(2-naphthylsulfonyl)piperazine]
< 10 µM | – | O=[N+]([O-])c1cccnc1N1CCN(S(=O)(=O)c2ccc(Cl)c(Cl)c2)CC1 [Example 13C, 1-[(3,4-dichlorophenyl)sulfonyl]-4-(3-nitropyridin-2-yl)piperazine]
< 10 µM | – | C[C@H]1CN(c2ncccc2Cl)C[C@H](C)N1S(=O)(=O)c1ccc(C(C)(C)C)cc1 [Example 6, (2S,6S)-1-[(4-tert-butylphenyl)sulfonyl]-4-(3-chloropyridin-2-yl)-2,6-dimethylpiperazine]
< 10 µM | – | N#Cc1cccnc1N1CCN(S(=O)(=O)c2ccc(Cl)c(Cl)c2)CC1 [Example 13B, 2-{4-[(3,4-dichlorophenyl)sulfonyl]piperazin-1-yl}nicotinonitrile]
